Test results as given in patent US20130012493A1, “NOVEL SPIRO IMIDAZOLONE DERIVATIVES AS GLUCAGON RECEPTOR ANTAGONISTS, COMPOSITIONS, AND METHODS FOR THEIR USE” (priority 2010, published 2013).

Biological target: T1, recombinant human glucagon receptor (Homo sapiens, UniProt P47871)
T1 construct: expressed in transfected cells; host or cells: CHO (Chinese hamster ovary) cells
Assay: Inhibition of glucagon-stimulated intracellular cAMP assay
Format: cell-based
Conditions: CHO cells expressing recombinant human glucagon receptor, stimulated with 300 pM glucagon
Experimental: Inhibition of Glucagon-Stimulated Intracellular cAMP Assay
Chinese hamster ovary (CHO) cells expressing the recombinant human glucagon receptor were harvested with the aid of non-enzymatic cell dissociation solution (GIBCO 13151-014). The cells were then pelleted and suspended in the stimulation buffer (1×HBSS, 5 mM Hepes, 0.1% BSA, pH7.4 in presence of complete protease inhibitor and phosphodiesterase inhibitor). The adenylate cyclase assay was conducted following the LANCE cAMP Kit (Perkin Elmer, AD0262) instructions. Briefly, cells were preincubated with anti-cAMP antibody in the stimulation buffer with a final concentration of 3% DMSO for 30 minutes and then stimulated with 300 pM glucagon for 45 minutes. The reaction was stopped by incubating with the detection buffer containing Europium chelate of the Eu-SA/Biotin-cAMP tracer for 20 hours. The fluorescence intensity emitted from the assay was measured at 665 nm using PheraStar instruments. […] Standard cAMP concentrations were conducted concurrently for conversion of fluorescence signal to cAMP level. Data was analyzed using GraphPad Prism. IC50 values were calculated using non-linear regression analysis assuming single site competition. […] Some of the compounds of the invention shown in the examples measured less than about 5 μM in this assay; other examples measured less than about 500 nM; others less than about 100 nM.

T1 sequence (P47871 26-477): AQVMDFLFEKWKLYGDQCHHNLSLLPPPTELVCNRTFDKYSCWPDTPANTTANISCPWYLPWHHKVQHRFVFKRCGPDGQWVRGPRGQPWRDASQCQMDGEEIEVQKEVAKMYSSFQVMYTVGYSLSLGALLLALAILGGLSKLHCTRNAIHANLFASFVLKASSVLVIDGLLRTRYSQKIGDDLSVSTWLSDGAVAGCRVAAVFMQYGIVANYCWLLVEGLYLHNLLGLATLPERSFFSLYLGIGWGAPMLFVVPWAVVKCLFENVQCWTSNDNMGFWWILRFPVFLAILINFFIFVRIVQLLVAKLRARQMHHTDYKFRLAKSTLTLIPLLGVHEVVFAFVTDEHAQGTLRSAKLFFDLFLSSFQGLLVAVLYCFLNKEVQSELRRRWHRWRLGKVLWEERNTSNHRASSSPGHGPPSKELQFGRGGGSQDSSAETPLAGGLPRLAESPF

| SMILES | IC50 |
| --- | --- |
| CC(C)(C)CC[C@H](c1ccc(C(=O)NCc2nn[nH]n2)cc1)N1C(=O)C(C2CCCCC2)=NC12CCC(C(C)(C)C)CC2 (some centres unmarked) [Example 9.99] | 290 nM |
| CC[C@H](c1ccc(C(=O)NCCC(=O)O)cc1)N1C(=O)C(N2CCCCC2)=NC12CCC(C(C)(C)C)CC2 (some centres unmarked) [Example 10.4] | 209 nM |
